Measurements taken from patent US20120088737A2, “NOVEL ACYL GUANIDINE DERIVATIVES” (AJINOMOTO CO., INC, priority 2009, published 2012).

Assays:
NHE1 = molecular target: T1, NHE1 (Homo sapiens, UniProt P19634); test: Measurements of NHE1 inhibitory activities (HLF cells, BCECF pH recovery); format: cell-based; conditions: HLF cells (human hepatoma cell line), measured after 10 minutes; read-out: hNHE1 IC50
T1 construct: HLF cells (Human hepatoma cell line) were used as cells for the test; endogenous in cells; host or cells: HLF cells (human hepatoma cell line)
T1 sequence (P19634 whole entry): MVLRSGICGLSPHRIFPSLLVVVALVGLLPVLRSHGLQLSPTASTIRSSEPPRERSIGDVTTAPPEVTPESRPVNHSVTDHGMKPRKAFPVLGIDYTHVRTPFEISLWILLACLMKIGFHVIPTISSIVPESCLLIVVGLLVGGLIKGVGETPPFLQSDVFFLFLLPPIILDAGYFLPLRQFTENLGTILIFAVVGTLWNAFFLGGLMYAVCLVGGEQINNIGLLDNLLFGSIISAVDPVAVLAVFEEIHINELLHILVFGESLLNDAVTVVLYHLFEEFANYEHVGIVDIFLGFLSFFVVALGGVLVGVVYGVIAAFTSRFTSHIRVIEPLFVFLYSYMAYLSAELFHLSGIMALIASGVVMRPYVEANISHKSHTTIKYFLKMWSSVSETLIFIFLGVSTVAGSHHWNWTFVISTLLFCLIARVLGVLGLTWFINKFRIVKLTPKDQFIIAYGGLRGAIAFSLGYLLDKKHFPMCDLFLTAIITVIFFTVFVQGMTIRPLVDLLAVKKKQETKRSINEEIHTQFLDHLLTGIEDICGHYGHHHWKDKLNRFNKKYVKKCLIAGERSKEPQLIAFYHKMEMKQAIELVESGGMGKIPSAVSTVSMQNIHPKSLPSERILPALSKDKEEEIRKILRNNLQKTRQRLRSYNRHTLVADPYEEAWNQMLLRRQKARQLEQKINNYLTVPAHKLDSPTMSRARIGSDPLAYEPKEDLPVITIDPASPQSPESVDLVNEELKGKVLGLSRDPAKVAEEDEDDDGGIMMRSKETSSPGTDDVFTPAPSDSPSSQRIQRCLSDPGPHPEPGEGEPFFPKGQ
Protocol: Pharmacological Test Example 1: Measurements of NHE1 Inhibitory Activities
HLF cells (Human hepatoma cell line) were used as cells for the test. After 1×10^4 cells/well were seeded to a 96-well plate and cultured for 3 days, they were cultured overnight under a serum-free medium. Then, the cells were incubated in a stain solution of Tetramethylammonium (TMA) Buffer (130 mM TMA-C1, 5 mM KCl, 2 mM CaCl2, 1 mM MgSO2, 25 mM glucose, 20 mM HEPES; pH 7.4) containing 40 mM NH4Cl and 1 μg/mL pH-sensitive fluorescent indicator BCECF-AM at 37° C. for 40 minutes and then BCECF was introduced into the cells. After the cells were washed once with TMA Buffer and incubated in TMA+40 mM NH4Cl solution at 37° C. for 15 minutes, the solution was removed and 20 μL/well of TMA Buffer and 10 μL/well of each test compound solution prepared with TMA Buffer were added to each well. The measurements were carried out by adding 200 μL/well of Na Buffer (130 mM, NaCl, 5 mM KCl, 2 mM CaCl2, 1 mM MgSO2, 1 mM NaH2PO4, 25 mM glucose, 20 mM HEPES; pH 7.4) or TMA Buffer (for base measurement), immediately placing it on FlexStation (Molecular Device) and then, after 10 minutes, measuring, it the two wavelengths of 505 nm (excitation wavelength)/530 nm (emission wavelength) (measurement value) and 440 nm (excitation wavelength)/530 nm (emission wavelength) (isosbestic point value). A NHE activity was calculated by dividing a measurement value by an isosbestic point value and a NHE1 inhibitory activity was calculated by the following equation. NHE1 inhibitory activity (%)=100×(1−(Measurement value [addition of each compound]−Base [addition of TMA Buffer])/(Control [addition of Na Buffer]−Base [addition of TMA Buffer]))

human NHE3 = molecular target: T2, human NHE3 (Homo sapiens, UniProt P48764); test: Improved version of measurements of NHE3 inhibitory activities (OK26 ND cell lines); format: cell-based; conditions: OK26 ND cell lines (opNHE1 expression reduced by 90%), measurement time 8 minutes at 26° C.; read-out: hNHE3 IC50
T2 construct: expressed in transfected cells; host or cells: OK26 cells (opossum kidney OK cells); OK26 ND sublines with opNHE1 reduced by 90% for A3
T2 sequence (P48764 26-834): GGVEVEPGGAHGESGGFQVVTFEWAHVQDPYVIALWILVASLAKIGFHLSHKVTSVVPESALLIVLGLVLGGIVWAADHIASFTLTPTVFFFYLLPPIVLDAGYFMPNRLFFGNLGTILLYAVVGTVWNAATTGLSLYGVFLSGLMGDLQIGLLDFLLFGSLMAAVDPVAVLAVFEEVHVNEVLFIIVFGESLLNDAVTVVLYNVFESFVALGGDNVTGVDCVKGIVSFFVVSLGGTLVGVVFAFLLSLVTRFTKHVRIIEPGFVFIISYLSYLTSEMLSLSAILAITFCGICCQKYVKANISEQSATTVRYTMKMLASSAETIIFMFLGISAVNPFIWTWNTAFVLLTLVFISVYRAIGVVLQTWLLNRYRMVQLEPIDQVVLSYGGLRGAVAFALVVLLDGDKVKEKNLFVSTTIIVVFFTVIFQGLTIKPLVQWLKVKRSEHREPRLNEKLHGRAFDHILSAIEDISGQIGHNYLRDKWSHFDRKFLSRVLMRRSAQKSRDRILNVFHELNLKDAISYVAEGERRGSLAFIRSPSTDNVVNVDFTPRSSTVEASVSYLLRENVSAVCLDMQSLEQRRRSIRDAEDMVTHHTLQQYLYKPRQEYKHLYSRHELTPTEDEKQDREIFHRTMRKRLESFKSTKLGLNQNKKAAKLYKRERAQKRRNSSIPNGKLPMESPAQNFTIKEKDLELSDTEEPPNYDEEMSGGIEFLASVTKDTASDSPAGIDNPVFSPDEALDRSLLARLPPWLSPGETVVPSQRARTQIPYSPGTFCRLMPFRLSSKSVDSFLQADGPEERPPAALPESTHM
Protocol: Pharmacological Test Example 3: Improved Version of Measurements of NHE3 Inhibitory Activities
OK26 cells express endogeneous NHE1 (opNHE1). In order to evaluate NHE3 inhibitory activities more precisely, OK26 ND cell lines in which the expression level of opNHE1 is reduced by 90% were established. Measurements of NEE inhibitory activities were carried out by using the established cell lines in the same manner as described in Pharmacological Test Example 1 except that the measurement time was 8 minutes (at 26° C.) to calculate more precise NHE3 inhibitory activities.

Compound	IC50 (NHE1)	IC50 (human NHE3)
C/C(=C\c1ccccc1-c1ccc(O)cc1Cl)C(=O)NC(=N)N [Example 60, N-[(E)-3-(2′-chloro-4′-hydroxy-biphenyl-2-yl)-2-methyl-acryloyl]-guanidine]	910 nM	310 nM
C/C(=C\c1cccc(C)c1-c1cccc(O)c1)C(=O)NC(=N)N [Example 68, N-[(E)-3-(3′-hydroxy-6-methyl-biphenyl-2-yl)-2-methyl-acryloyl]-guanidine]	1700 nM	120 nM
C/C(=C\c1ccc(Oc2ccc(S(N)(=O)=O)cc2)cc1-c1cccc(O)c1)C(=O)NC(=N)N [Example 64, 4-[(E)-6-(3-guanidino-2-methyl-3-oxo-propenyl)-3′-hydroxy-biphenyl-3-yloxy]-benzenesulfonamide]	1300 nM	150 nM
C/C(=C\c1ccccc1-c1ccc(O)cc1F)C(=O)NC(=N)N [Example 59, N-[(E)-3-(2′-fluoro-4′-hydroxy-biphenyl-2-yl)-2-methyl-acryloyl]-guanidine]	3200 nM	280 nM
C/C(=C\c1cccc(C)c1-c1ccc(O)cc1)C(=O)NC(=N)N [Example 67, N-[(E)-3-(4′-hydroxy-6-methyl-biphenyl-2-yl)-2-methyl-acryloyl]-guanidine]	2100 nM	120 nM
C/C(=C\c1ccccc1-c1ccc(C(=N)N)c(F)c1)C(=O)NC(=N)N [Example 58, (E)-3-fluoro-2′-(3-guanidino-2-methyl-3-oxo-propenyl)-biphenyl-4-carboxamidine]	200 nM	9 nM
COc1cc(-c2cc(C)ccc2/C=C(\C)C(=O)NC(=N)N)ccc1O [Example 66, N-[(E)-3-(4′-hydroxy-3′-methoxy-5-methyl-biphenyl-2-yl)-2-methyl-acryloyl]-guanidine]	–	130 nM
COc1ccc(/C=C(\C)C(=O)NC(=N)N)c(-c2ccc(O)cc2)c1 [Example 73, N-[(E)-3-(4′-hydroxy-5-methoxy-biphenyl-2-yl)-2-methyl-acryloyl]-guanidine]	–	120 nM
C/C(=C\c1ccccc1-c1ccc(O)c(C)c1)C(=O)NC(=N)N [Example 61, N-[(E)-3-(4′-hydroxy-3′-methyl-biphenyl-2-yl)-2-methyl-acryloyl]-guanidine]	4300 nM	400 nM
C/C(=C\c1ccc(-c2ccc(CO)cc2)cc1)C(=O)NC(=N)N [Example 93]	–	250 nM
C/C(=C\c1c(-c2ccc(O)cc2)cccc1-c1ccc(O)cc1)C(=O)NC(=N)N [Example 80, N-[(E)-3-(4,4″-dihydroxy-[1,1′;3′,1″]terphenyl-2′-yl)-2-methyl-acryloyl]-guanidine]	7700 nM	200 nM
C/C(=C\c1ccccc1-c1ccc(O)cc1O)C(=O)NC(=N)N [Example 53, N-[(E)-3-(2′,4′-hydroxy-2-yl)-2-methyl-acryloyl]-guanidine]	2900 nM	740 nM

The remaining compounds from weak to strong by IC50 (human NHE3), led by results:

IC50 (NHE1)	IC50 (human NHE3)	Compound
–	960 nM	C/C(=C\c1c(Br)cccc1-c1ccc(O)cc1)C(=O)NC(=N)N [Example 70, N-[(E)-3-(3-bromo-4′-hydroxy-biphenyl-2-yl)-2-methyl-acryloyl]-guanidine]
–	470 nM	C/C(=C\c1ccc(-c2ccoc2)cc1)C(=O)NC(=N)N [Example 85, N-[(E)-3-(4-furan-3-yl-phenyl)-2-methyl-acryloyl]-guanidine]
2900 nM	440 nM	C/C(=C\c1ccccc1-c1cccc(C(=O)NO)c1)C(=O)NC(=N)N [Example 55, (E)-2′-(3-guanidino-2-methyl-3-oxo-propenyl)-biphenyl-3-carboxylic acid hydroxyamide]
–	400 nM	C/C(=C\c1ccccc1-c1ccc(CO)cc1)C(=O)NC(=N)N [Example 6, N-[(E)-3-(4′-hydroxymethyl-biphenyl-2-yl)-2-methyl-acryloyl]-guanidine]
9900 nM	330 nM	C/C(=C\c1ccc(C)cc1-c1ccc(F)c(O)c1)C(=O)NC(=N)N [Example 63, N-[(E)-3-(4′-fluoro-3′-hydroxy-5-methyl-biphenyl-2-yl)-2-methyl-acryloyl]-guanidine]
2100 nM	320 nM	C/C(=C\c1ccc(-c2ccc(O)cc2)cc1N1CCOCC1)C(=O)NC(=N)N [Example 94, N-[(E)-3-(4′-hydroxy-3-morpholine-4-yl-biphenyl-4-yl)-2-methyl-acryloyl]-guanidine]
–	300 nM	C/C(=C\c1ccc(-c2ccc(O)cc2C)cc1)C(=O)NC(=N)N [Example 90, N-[(E)-3-(4′-hydroxy-2′-methyl-biphenyl-4-yl)-2-methyl-acryloyl]-guanidine]
–	240 nM	C/C(=C\c1ccc(-c2ccc(O)cc2)cc1C)C(=O)NC(=N)N [Example 95, N-[(E)-3-(4′-hydroxy-3-methyl-biphenyl-4-yl)-2-methyl-acryloyl]-guanidine]
1500 nM	210 nM	C/C(=C\c1ccc(Oc2ccc(S(N)(=O)=O)cc2)cc1-c1ccc(O)cc1)C(=O)NC(=N)N [Example 65, 4-[(E)-6-(3-guanidino-2-methyl-3-oxo-propenyl)-4′-hydroxy-biphenyl-3-yloxy]-benzenesulfonamide]
–	200 nM	C/C(=C\c1ccc(-c2ccc(O)cc2C)cc1C)C(=O)NC(=N)N [Example 96, N-[(E)-3-(4′-hydroxy-3,2′-dimethyl-biphenyl-4-yl)-2-methyl-acryloyl]-guanidine]
–	190 nM	C/C(=C\c1ccc(-c2cc(O)ccc2F)cc1)C(=O)NC(=N)N [Example 91, N-[(E)-3-(2′-fluoro-5′-hydroxy-biphenyl-4-yl)-2-methyl-acryloyl]-guanidine]
–	150 nM	C/C(=C\c1ccc(-c2ccc(O)c(O)c2)cc1)C(=O)NC(=N)N [Example 92, N-[(E)-3-(3′,4′-dihydroxy-biphenyl-4-yl)-2-methyl-acryloyl]-guanidine]
1300 nM	130 nM	C/C(=C\c1ccc(Oc2ccc(O)cc2)cc1-c1ccc(O)cc1)C(=O)NC(=N)N [Example 71, N-{(E)-3-[4′-hydroxy-5-(4-hydroxy-phenoxy)-biphenyl-2-yl]-2-methyl-acryloyl}-guanidine]
580 nM	100 nM	C/C(=C\c1ccc(C)cc1-c1ccc(O)c(O)c1)C(=O)NC(=N)N [Example 69, N-[(E)-3-(3′,4′-dihydroxy-5-methyl-biphenyl-2-yl)-2-methyl-acryloyl]-guanidine]
1800 nM	100 nM	C/C(=C\c1ccc(-c2cc(C)c(O)c(C)c2)cc1-c1cc(C)c(O)c(C)c1)C(=O)NC(=N)N [Example 75, N-[(E)-3-(2,4-di(3,5-dimethyl-4-hydroxyphenyl)-phenyl)-2-methyl-acryloyl]-guanidine]
1300 nM	92 nM	C/C(=C\c1ccc(C)cc1-c1ccc(O)c(F)c1)C(=O)NC(=N)N [Example 62, N-[(E)-3-(3′-fluoro-4′-hydroxy-5-methylbiphenyl-2-yl)-2-methyl-acryloyl]-guanidine]
